{"source": "patent US20090036448A1", "about": "“PYRIMIDINE DERIVATIVES AND METHODS OF TREATMENT RELATED TO THE USE THEREOF” (TAISHO PHARMECUTICAL CO., LTD., priority 2004, published 2009)", "data": [{"biological_target": "MCH receptor (Homo sapiens, UniProt Q99705)", "sequence (Q99705 whole entry)": "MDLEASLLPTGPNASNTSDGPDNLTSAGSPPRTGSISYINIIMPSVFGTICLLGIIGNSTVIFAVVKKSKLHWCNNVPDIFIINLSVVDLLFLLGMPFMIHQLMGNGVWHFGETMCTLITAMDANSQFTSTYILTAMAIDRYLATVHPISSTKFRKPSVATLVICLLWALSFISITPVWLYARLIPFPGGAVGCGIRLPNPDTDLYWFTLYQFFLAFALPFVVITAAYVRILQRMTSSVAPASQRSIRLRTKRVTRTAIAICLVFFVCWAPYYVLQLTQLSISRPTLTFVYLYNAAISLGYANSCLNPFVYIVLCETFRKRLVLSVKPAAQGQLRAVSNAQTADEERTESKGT", "assay": "Receptor binding assay with Radiolabelled MCH Ligand", "design": "expressed in transfected cells; host or cells: 293 cells (human kidney, ATCC), transient transfection; crude membranes", "conditions": "class by percent of control at 10^-7 M or IC50", "method_in_brief": "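Membranes from 293 cells transiently transfected with human MCH receptor competed test compounds against a radiolabelled MCH ligand in Tris-HCl pH 7.4 with MgCl2 and EDTA for 60–120 min at room temperature. Filtration and scintillation counting followed, with cold MCH defining nonspecific binding. IC50 came from logit-log plots of %B/B0, and Ki from the Cheng-Prusoff equation.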", "values": [{"smiles": "Cc1nc(N[C@H]2CC[C@@H](NC(=O)/C=C/c3ccc([N+](=O)[O-])cc3)CC2)cc(N(C)C)n1", "note": "[compound 263]", "class": "3 (Class 3: The value of percent of control at 10^−7 M was more than 60% or the value of IC50 was more than 200 nM.)"}, {"smiles": "Cc1nc(N[C@H]2CC[C@@H](NC(=O)c3cccnc3Sc3ccccc3)CC2)cc(N(C)C)n1", "note": "[compound 266]", "class": "3 (Class 3: The value of percent of control at 10^−7 M was more than 60% or the value of IC50 was more than 200 nM.)"}, {"smiles": "Cc1nc(N[C@H]2CC[C@@H](NC(=O)c3ccc(S(C)(=O)=O)s3)CC2)cc(N(C)C)n1", "note": "[compound 346]", "class": "3 (Class 3: The value of percent of control at 10^−7 M was more than 60% or the value of IC50 was more than 200 nM.)"}, {"smiles": "Cc1nc(N[C@H]2CC[C@@H](NC(=O)CNc3ccccc3)CC2)cc(N(C)C)n1", "note": "[compound 303]", "class": "3 (Class 3: The value of percent of control at 10^−7 M was more than 60% or the value of IC50 was more than 200 nM.)"}, {"smiles": "Cc1nc(N[C@H]2CC[C@@H](NC(=O)COc3ccc(Cl)cc3)CC2)cc(N(C)C)n1", "note": "[compound 209]", "class": "3 (Class 3: The value of percent of control at 10^−7 M was more than 60% or the value of IC50 was more than 200 nM.)"}, {"smiles": "Cc1nc(N[C@H]2CC[C@@H](NCC3CCCC3)CC2)cc(N(C)C)n1", "note": "[compound 398]", "class": "3 (Class 3: The value of percent of control at 10^−7 M was more than 60% or the value of IC50 was more than 200 nM.)"}, {"smiles": "CCOc1ccc(C(=O)N[C@H]2CC[C@@H](Nc3cc(N(C)C)nc(C)n3)CC2)cc1", "note": "[compound 220]", "class": "3 (Class 3: The value of percent of control at 10^−7 M was more than 60% or the value of IC50 was more than 200 nM.)"}, {"smiles": "Cc1nc(N[C@H]2CC[C@@H](NS(=O)(=O)c3c(C)nn(C)c3C)CC2)cc(N(C)C)n1", "note": "[compound 513]", "class": "3 (Class 3: The value of percent of control at 10^−7 M was more than 60% or the value of IC50 was more than 200 nM.)"}, {"smiles": "Cc1nc(N[C@H]2CC[C@@H](NC(=O)CC3Cc4ccccc4C3)CC2)cc(N(C)C)n1", "note": "[compound 339]", "class": "3 (Class 3: The value of percent of control at 10^−7 M was more than 60% or the value of IC50 was more than 200 nM.)"}, {"smiles": "Cc1nc(N[C@H]2CC[C@@H](NC(=O)C(C)c3ccc(-c4ccccc4)c(F)c3)CC2)cc(N(C)C)n1", "note": "(relative stereo) [compound 284]", "class": "3 (Class 3: The value of percent of control at 10^−7 M was more than 60% or the value of IC50 was more than 200 nM.)"}, {"smiles": "Cc1nc(N[C@H]2CC[C@@H](NCc3cc4ccccc4s3)CC2)cc(N(C)C)n1", "note": "[compound 357]", "class": "3 (Class 3: The value of percent of control at 10^−7 M was more than 60% or the value of IC50 was more than 200 nM.)"}, {"smiles": "Cc1nc(N[C@H]2CC[C@@H](NC(=O)CCCCCCCCCCc3ccccc3)CC2)cc(N(C)C)n1", "note": "[compound 301]", "class": "3 (Class 3: The value of percent of control at 10^−7 M was more than 60% or the value of IC50 was more than 200 nM.)"}, {"smiles": "Cc1nc(N[C@H]2CC[C@@H](NCc3ccc(F)cc3C(F)(F)F)CC2)cc(N(C)C)n1", "note": "[compound 394]", "class": "3 (Class 3: The value of percent of control at 10^−7 M was more than 60% or the value of IC50 was more than 200 nM.)"}, {"smiles": "Cc1nc(N[C@H]2CC[C@@H](NC(=O)c3cnn(-c4ccc([N+](=O)[O-])cc4)c3C(F)(F)F)CC2)cc(N(C)C)n1", "note": "[compound 233]", "class": "3 (Class 3: The value of percent of control at 10^−7 M was more than 60% or the value of IC50 was more than 200 nM.)"}, {"smiles": "Cc1nc(N[C@H]2CC[C@@H](NS(=O)(=O)c3c(C)noc3C)CC2)cc(N(C)C)n1", "note": "[compound 512]", "class": "3 (Class 3: The value of percent of control at 10^−7 M was more than 60% or the value of IC50 was more than 200 nM.)"}, {"smiles": "Cc1nc(N[C@H]2CC[C@@H](NS(=O)(=O)CCc3cccc4ccccc34)CC2)cc(N(C)C)n1", "note": "[compound 477]", "class": "3 (Class 3: The value of percent of control at 10^−7 M was more than 60% or the value of IC50 was more than 200 nM.)"}, {"smiles": "Cc1nc(N[C@H]2CC[C@@H](NC(=S)Nc3ccc(I)cc3)CC2)cc(N(C)C)n1", "note": "[compound 449]", "class": "3 (Class 3: The value of percent of control at 10^−7 M was more than 60% or the value of IC50 was more than 200 nM.)"}, {"smiles": "Cc1cc(C)c(S(=O)(=O)N[C@H]2CC[C@@H](Nc3cc(N(C)C)nc(C)n3)CC2)c(C)c1", "note": "[compound 486]", "class": "3 (Class 3: The value of percent of control at 10^−7 M was more than 60% or the value of IC50 was more than 200 nM.)"}, {"smiles": "Cc1nc(N[C@H]2CC[C@@H](NC(=O)c3ccc4cc5ccccc5cc4c3)CC2)cc(N(C)C)n1", "note": "[compound 333]", "class": "3 (Class 3: The value of percent of control at 10^−7 M was more than 60% or the value of IC50 was more than 200 nM.)"}, {"smiles": "Cc1nc(N[C@H]2CC[C@@H](NC(=O)c3ccc(-c4cnco4)cc3)CC2)cc(N(C)C)n1", "note": "[compound 347]", "class": "3 (Class 3: The value of percent of control at 10^−7 M was more than 60% or the value of IC50 was more than 200 nM.)"}, {"smiles": "Cc1nc(N[C@H]2CC[C@@H](NCC3(c4ccc(Cl)cc4)CCCC3)CC2)cc(N(C)C)n1", "note": "[compound 365]", "class": "3 (Class 3: The value of percent of control at 10^−7 M was more than 60% or the value of IC50 was more than 200 nM.)"}, {"smiles": "Cc1nc(N[C@H]2CC[C@@H](NC(=O)COc3ccccc3[N+](=O)[O-])CC2)cc(N(C)C)n1", "note": "[compound 239]", "class": "3 (Class 3: The value of percent of control at 10^−7 M was more than 60% or the value of IC50 was more than 200 nM.)"}, {"smiles": "Cc1nc(N[C@H]2CC[C@@H](NS(=O)(=O)c3cccc(F)c3)CC2)cc(N(C)C)n1", "note": "[compound 503]", "class": "3 (Class 3: The value of percent of control at 10^−7 M was more than 60% or the value of IC50 was more than 200 nM.)"}, {"smiles": "Cc1nc(N[C@H]2CC[C@@H](NC(=O)Nc3ccc(Br)cc3C)CC2)cc(N(C)C)n1", "note": "[compound 420]", "class": "3 (Class 3: The value of percent of control at 10^−7 M was more than 60% or the value of IC50 was more than 200 nM.)"}, {"smiles": "Cc1ccc(S(=O)(=O)n2ccc(C(=O)N[C@H]3CC[C@@H](Nc4cc(N(C)C)nc(C)n4)CC3)c2)cc1", "note": "[compound 342]", "class": "3 (Class 3: The value of percent of control at 10^−7 M was more than 60% or the value of IC50 was more than 200 nM.)"}, {"smiles": "CCCCCCCCOC(=O)N[C@H]1CC[C@@H](Nc2cc(N(C)C)nc(C)n2)CC1", "note": "[compound 458]", "class": "3 (Class 3: The value of percent of control at 10^−7 M was more than 60% or the value of IC50 was more than 200 nM.)"}, {"smiles": "Cc1nc(N[C@H]2CC[C@@H](NC(=O)c3cnc4ccccc4n3)CC2)cc(N(C)C)n1", "note": "[compound 240]", "class": "3 (Class 3: The value of percent of control at 10^−7 M was more than 60% or the value of IC50 was more than 200 nM.)"}, {"smiles": "Cc1nc(N[C@H]2CC[C@@H](NC(=S)NCC(c3ccccc3)c3ccccc3)CC2)cc(N(C)C)n1", "note": "[compound 434]", "class": "3 (Class 3: The value of percent of control at 10^−7 M was more than 60% or the value of IC50 was more than 200 nM.)"}, {"smiles": "Cc1nc(N[C@H]2CC[C@@H](NC(=O)C3=Cc4cc(Cl)ccc4OC3)CC2)cc(N(C)C)n1", "note": "[compound 271]", "class": "3 (Class 3: The value of percent of control at 10^−7 M was more than 60% or the value of IC50 was more than 200 nM.)"}, {"smiles": "CCc1cccc(C(C)C)c1NC(=O)N[C@H]1CC[C@@H](Nc2cc(N(C)C)nc(C)n2)CC1", "note": "[compound 419]", "class": "3 (Class 3: The value of percent of control at 10^−7 M was more than 60% or the value of IC50 was more than 200 nM.)"}, {"smiles": "COc1ccc(OC)c(NC(=O)Cc2ccccc2C(=O)N[C@H]2CC[C@@H](Nc3cc(N(C)C)nc(C)n3)CC2)c1", "note": "[compound 295]", "class": "3 (Class 3: The value of percent of control at 10^−7 M was more than 60% or the value of IC50 was more than 200 nM.)"}, {"smiles": "Cc1nc(N[C@H]2CC[C@@H](NC(=O)c3ccc(Br)cc3)CC2)cc(N(C)C)n1", "note": "[compound 205]", "class": "3 (Class 3: The value of percent of control at 10^−7 M was more than 60% or the value of IC50 was more than 200 nM.)"}, {"smiles": "Cc1nc(N[C@H]2CC[C@@H](NC(=O)Nc3c(C)cc(Br)cc3C)CC2)cc(N(C)C)n1", "note": "[compound 416, N-(4-bromo-2,6-dimethylphenyl)-N′-(cis-4-{[6-(dimethylamino)-2-methylpyrimidin-4-yl]amino}cyclohexyl)urea]", "class": "1 (Class 1: The value of percent of control at 10^−7 M was less than 40% or the value of IC50 was less than 50 nM.)"}, {"smiles": "Cc1nc(N[C@H]2CC[C@@H](NCc3cccs3)CC2)cc(N(C)C)n1", "note": "[compound 388]", "class": "3 (Class 3: The value of percent of control at 10^−7 M was more than 60% or the value of IC50 was more than 200 nM.)"}, {"smiles": "Cc1nc(N[C@H]2CC[C@@H](NC(=O)c3cccc4c3-c3ccc([N+](=O)[O-])cc3C4)CC2)cc(N(C)C)n1", "note": "[compound 308]", "class": "3 (Class 3: The value of percent of control at 10^−7 M was more than 60% or the value of IC50 was more than 200 nM.)"}, {"smiles": "COc1ccc2c(CC(=O)N[C@H]3CC[C@@H](Nc4cc(N(C)C)nc(C)n4)CC3)cc(=O)oc2c1", "note": "[compound 291]", "class": "3 (Class 3: The value of percent of control at 10^−7 M was more than 60% or the value of IC50 was more than 200 nM.)"}, {"smiles": "Cc1nc(N[C@H]2CC[C@@H](NC(=O)Cc3nc(-c4ccccc4)sc3C)CC2)cc(N(C)C)n1", "note": "[compound 289]", "class": "3 (Class 3: The value of percent of control at 10^−7 M was more than 60% or the value of IC50 was more than 200 nM.)"}, {"smiles": "Cc1nc(N[C@H]2CC[C@@H](NC(=O)c3ccccc3I)CC2)cc(N(C)C)n1", "note": "[compound 224]", "class": "3 (Class 3: The value of percent of control at 10^−7 M was more than 60% or the value of IC50 was more than 200 nM.)"}, {"smiles": "Cc1ccc(C(=O)c2ccccc2C(=O)N[C@H]2CC[C@@H](Nc3cc(N(C)C)nc(C)n3)CC2)cc1", "note": "[compound 330]", "class": "3 (Class 3: The value of percent of control at 10^−7 M was more than 60% or the value of IC50 was more than 200 nM.)"}, {"smiles": "Cc1ccc(SC(CC(=O)c2ccc(F)cc2)C(=O)N[C@H]2CC[C@@H](Nc3cc(N(C)C)nc(C)n3)CC2)cc1", "note": "(relative stereo) [compound 311]", "class": "3 (Class 3: The value of percent of control at 10^−7 M was more than 60% or the value of IC50 was more than 200 nM.)"}]}]}
